Patent US8999957B2, “Heterocyclic compounds as ERK inhibitors” (Merck Sharp & Dohme Corp., priority 2010, dated 2015)
Where “and” joins values, the source holds several entries; their conditions need not be identical. Equal entries are not always repeated. Where two headings read alike, the source gives them in different places.

Target: fully phosphorylated, mouse aERK2 enzyme (Mus musculus (Mouse), UniProt P63085)
Test: Active ERK2 (aERK) IMAP-FP assay, condition 2
Format: biochemical
Procedure: Active ERK2 (aERK) Assay: (Unless Indicated Otherwise, the Data Provided for aERK was obtained using Condition 1)
Activated ERK2 activity was determined in an IMAP-FP assay (Molecular Devices). […] Phosphorylation reactions were allowed to proceed for 40-45 minutes and were immediately quenched by the addition of 60 μL IMAP detection beads (1:1000 dilutions) in IMAP binding buffer. Plates were read on EnVision reader after 30 minutes binding equilibration.

[1] = active ERK2, read-out: aErk2 Ic50
[2] = aERK assay condition 2, 30 uM ATP, read-out: aERK IC50

Sequence of fully phosphorylated, mouse aERK2 enzyme (P63085 whole entry): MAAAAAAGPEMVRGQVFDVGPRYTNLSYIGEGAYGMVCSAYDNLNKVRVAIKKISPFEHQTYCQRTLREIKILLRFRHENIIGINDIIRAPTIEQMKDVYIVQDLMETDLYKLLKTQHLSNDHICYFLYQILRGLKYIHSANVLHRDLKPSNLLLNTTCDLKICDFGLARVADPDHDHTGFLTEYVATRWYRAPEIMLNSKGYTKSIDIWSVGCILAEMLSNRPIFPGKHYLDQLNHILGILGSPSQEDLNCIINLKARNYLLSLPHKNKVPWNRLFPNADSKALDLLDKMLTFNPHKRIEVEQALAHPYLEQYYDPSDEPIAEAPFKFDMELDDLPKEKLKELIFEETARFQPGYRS

SMILES	IC50 [1]	IC50 [2]
[2H]C([2H])([2H])Oc1cccc(F)c1CN1C[C@H](NC(=O)c2ccc3[nH]nc(-c4ccc5nc(C)sc5c4)c3c2)CC[C@H]1C(N)=O	3.4 nM	–
CN(C)C(=O)C(c1ccccc1F)N1CCC[C@@H](NC(=O)c2ccc3[nH]nc(-c4ccncc4)c3c2)C1 (single isomer, unassigned) [N-((R)-1-((R or S)-2-(dimethylamino)-1-(2-fluorophenyl)-2-oxoethyl)piperidin-3-yl)-3-(pyridin-4-yl)-1H-indazole-5-carboxamide]	–	26.4 nM
NC(=O)C(c1ccccc1F)N1CCC[C@@H](NC(=O)c2ccc3[nH]nc(-c4ccncc4)c3c2)C1 (single isomer, unassigned) [N-((R)-1-((R or S)-2-amino-1-(2-fluorophenyl)-2-oxoethyl)-piperidin-3-yl)-3-(pyridin-4-yl)-1H-indazole-5-carboxamide]	–	72.2 nM
COc1cccc(F)c1CN1C[C@@H](NC(=O)c2ccc3[nH]nc(-c4ccnc(C)c4)c3c2)CC[C@@H]1C(=O)N1CC(O[Si](C)(C)C(C)(C)C)CO1 (stereo in doubt) [N-[(3S,6R)-6-[(4-{[tert-butyl(dimethyl)silyl]oxy}isoxazolidin-2-yl)carbonyl]-1-(2-fluoro-6-methoxybenzyl)-piperidin-3-yl]-3-(2-methylpyridin-4-yl)-1H-indazole-5-carboxamide]	72.5 nM and 144 nM	–
COc1cccc(F)c1CN1C[C@H](NC(=O)c2ccc3[nH]nc(-c4ccnc(C)c4)c3c2)CC[C@H]1C(=O)N1CCN(C(=O)OC2(C)CC2)CC1 [1-methylcyclopropyl 4-{[(2S,5R)-1-(2-fluoro-6-methoxybenzyl)-5-({[3-(2-methylpyridin-4-yl)-1H-indazol-5-yl]carbonyl}amino)piperidin-2-yl]carbonyl}piperazine-1-carboxylate]	22.1 nM	–
COc1cccc(F)c1CN1C[C@H](NC(=O)c2ccc3[nH]nc(-c4ccnc(C)c4)c3c2)CC[C@H]1C(=O)N1CCN(C(=O)OC(C)C)CC1 [1-methylethyl 4-{[(2S,5R)-1-(2-fluoro-6-methoxybenzyl)-5-({[3-(2-methylpyridin-4-yl)-1H-indazol-5-yl]carbonyl}amino)piperidin-2-yl]carbonyl}piperazine-1-carboxylate]	19.1 nM	–
COc1cccc(F)c1CN1CCC[C@@H](NC(=O)c2ccc3[nH]nc(C4=CCS(=O)(=O)CC4)c3c2)C1 [3-(1,1-dioxido-3,6-dihydro-2H-thiopyran-4-yl)-N-[(3R)-1-(2-fluoro-6-methoxy-benzyl)piperidin-3-yl]-1H-indazole-5-carboxamide]	–	8.4 nM
Cc1cc(-c2n[nH]c3ccc(C(=O)N[C@@H]4CC[C@@H](C(=O)Nc5nccs5)N(CCc5ccccc5)C4)cc23)ccn1 [3-(2-methylpyridin-4-yl)-N-[(3R,6S)-1-(2-phenylethyl)-6-(1,3-thiazol-2-ylcarbamoyl)-piperidin-3-yl)-1H-indazole-5-carboxamide]	133 nM	–
COc1cccc(F)c1CN1CCC[C@@H](NC(=O)c2ccc3[nH]nc(C4=CCOCC4)c3c2)C1 [3-(3,6-dihydro-2H-pyran-4-yl)-N-[(3R)-1-(2-fluoro-6-methoxy-benzyl)piperidin-3-yl]-1H-indazole-5-carboxamide]	–	1.3 nM
COC(=O)[C@@H](c1c(F)cccc1F)N1CCC[C@@H](NC(=O)c2ccc3[nH]nc(-c4ccncc4)c3c2)C1 [(R)-methyl 2-(2,6-difluorophenyl)-2-((R)-3-(3-(pyridin-4-yl)-1H-indazole-5-carboxamido)piperidin-1-yl)acetate]	–	2200 nM
COc1cccc(F)c1CN1CCC[C@@H](NC(=O)c2ccc3[nH]nc(C4CCOCC4)c3c2)C1 [N-[(3R)-1-(2-fluoro-6-methoxybenzyl)piperidin-3-yl]-3-(tetrahydro-2H-pyran-4-yl)-1H-indazole-5-carboxamide]	–	195 nM
Cc1cc(-c2n[nH]c3ccc(C(=O)N[C@@H]4CC[C@@H](C(=O)N(C)C)N(Cc5c(F)cccc5F)C4)cc23)ccn1 [N-[(3R,6S)-1-(2,6-difluorobenzyl)-6-(dimethylcarbamoyl)piperidin-3-yl]-3-(2-methylpyridin-4-yl)-1H-indazole-5-carboxamide]	74 nM	–
COc1cccc(F)c1CN1C[C@H](NC(=O)c2ccc3[nH]nc(-c4ccnc(C)c4)c3c2)CC[C@H]1C(=O)N1CCCCO1 [N-[(3R,6S)-1-(2-fluoro-6-methoxybenzyl)-6-(1,2-oxazinan-2-ylcarbonyl)piperidin-3-yl]-3-(2-methylpyridin-4-yl)-1H-indazole-5-carboxamide]	9.6 nM	–
COc1cccc(F)c1CN1C[C@H](NC(=O)c2ccc3[nH]nc(-c4ccnc(C)c4)c3c2)CC[C@H]1C(=O)Nc1nccs1 [N-[(3R,6S)-1-(2-fluoro-6-methoxybenzyl)-6-(1,3-thiazol-2-ylcarbamoyl)piperidin-3-yl]-3-(2-methylpyridin-4-yl)-1H-indazole-5-carboxamide]	–	14 nM
COc1cccc(F)c1CN1C[C@H](NC(=O)c2ccc3[nH]nc(-c4ccnc(C)c4)c3c2)CC[C@H]1C(=O)NN [N-[(3R,6S)-1-(2-fluoro-6-methoxybenzyl)-6-(hydrazinocarbonyl)piperidin-3-yl]-3-(2-methylpyridin-4-yl)-1H-indazole-5-carboxamide]	1 nM	–
COc1cccc(F)c1CN1C[C@H](NC(=O)c2ccc3[nH]nc(-c4ccnc(C)c4)c3c2)CC[C@H]1C(=O)N1CCCO1 [N-[(3R,6S)-1-(2-fluoro-6-methoxybenzyl)-6-(isoxazolidin-2-ylcarbonyl)piperidin-3-yl]-3-(2-methylpyridin-4-yl)-1H-indazole-5-carboxamide]	10.5 nM	–
CNC(=O)[C@@H]1CC[C@@H](NC(=O)c2ccc3[nH]nc(-c4ccnc(C)c4)c3c2)CN1Cc1c(F)cccc1OC [N-[(3R,6S)-1-(2-fluoro-6-methoxybenzyl)-6-(methylcarbamoyl)piperidin-3-yl]-3-(2-methylpyridin-4-yl)-1H-indazole-5-carboxamide]	2.7 nM	–

Results, then the compound that gave them:

IC50 [1]	IC50 [2]	SMILES
–	175 nM	CNC(=O)C(c1ccccc1F)N1CCC[C@@H](NC(=O)c2ccc3[nH]nc(-c4ccncc4)c3c2)C1 (single isomer, unassigned) [drawing 501, N-((R)-1-((R or S)-1-(2-fluorophenyl)-2-(methyl-amino)-2-oxoethyl)piperidin-3-yl)-3-(pyridin-4-yl)-1H-indazole-5-carboxamide]
–	4.6 nM	CNC(=O)C(c1ccccc1F)N1CCC[C@@H](NC(=O)c2ccc3[nH]nc(-c4ccncc4)c3c2)C1 (single isomer, unassigned) [drawing 502, N-((R)-1-((S or R)-1-(2-fluorophenyl)-2-(methyl-amino)-2-oxoethyl)piperidin-3-yl)-3-(pyridin-4-yl)-1H-indazole-5-carboxamide]
–	222 nM	NC(=O)C(c1c(F)cccc1F)N1CCC[C@@H](NC(=O)c2ccc3[nH]nc(-c4ccncc4)c3c2)C1 (single isomer, unassigned) [drawing 503, N-((R)-1-((R or S)-2-amino-1-(2,6-difluorophenyl)-2-oxoethyl)piperidin-3-yl)-3-(pyridin-4-yl)-1H-indazole-5-carboxamide]
–	35.3 nM	NC(=O)C(c1c(F)cccc1F)N1CCC[C@@H](NC(=O)c2ccc3[nH]nc(-c4ccncc4)c3c2)C1 (single isomer, unassigned) [drawing 504, N-((R)-1-((S or R)-2-amino-1-(2,6-difluorophenyl)-2-oxoethyl)piperidin-3-yl)-3-(pyridin-4-yl)-1H-indazole-5-carboxamide]
–	451 nM	CNC(=O)C(c1c(F)cccc1F)N1CCC[C@@H](NC(=O)c2ccc3[nH]nc(-c4ccncc4)c3c2)C1 (single isomer, unassigned) [drawing 505, N-((R)-1-((R or S)-1-(2,6-difluorophenyl)-2-(methylamino)-2-oxoethyl)-piperidin-3-yl)-3-(pyridin-4-yl)-1H-indazole-5-carboxamide]
–	20.8 nM	CNC(=O)C(c1c(F)cccc1F)N1CCC[C@@H](NC(=O)c2ccc3[nH]nc(-c4ccncc4)c3c2)C1 (single isomer, unassigned) [drawing 506, N-((R)-1-((S or R)-1-(2,6-difluorophenyl)-2-(methylamino)-2-oxoethyl)piperidin-3-yl)-3-(pyridin-4-yl)-1H-indazole-5-carboxamide]
–	416 nM	CN(C)C(=O)C(c1c(F)cccc1F)N1CCC[C@@H](NC(=O)c2ccc3[nH]nc(-c4ccncc4)c3c2)C1 (single isomer, unassigned) [drawing 507, N-((R)-1-((R or S)-1-(2,6-difluorophenyl)-2-(dimethyl-amino)-2-oxoethyl)piperidin-3-yl)-3-(pyridin-4-yl)-1H-indazole-5-carboxamide]
–	115 nM	CN(C)C(=O)C(c1c(F)cccc1F)N1CCC[C@@H](NC(=O)c2ccc3[nH]nc(-c4ccncc4)c3c2)C1 (single isomer, unassigned) [drawing 508, N-((R)-1-((S or R)-1-(2,6-difluorophenyl)-2-(dimethyl-amino)-2-oxoethyl)piperidin-3-yl)-3-(pyridin-4-yl)-1H-indazole-5-carboxamide]
3.2 nM	–	CNC(=O)[C@@H]1CC[C@@H](NC(=O)c2ccc3[nH]nc(-c4ccncc4)c3c2)CN1Cc1c(F)cccc1OC [N-[(3R,6S)-1-(2-fluoro-6-methoxybenzyl)-6-(methylcarbamoyl)piperidin-3-yl]-3-pyridin-4-yl-1H-indazole-5-carboxamide]
18.2 nM	–	COc1cccc(F)c1CN1C[C@H](NC(=O)c2ccc3[nH]nc(-c4ccnc(C)c4)c3c2)CC[C@H]1C(=O)N1CCOCC1 [N-[(3R,6S)-1-(2-fluoro-6-methoxybenzyl)-6-(morpholin-4-ylcarbonyl)piperidin-3-yl]-3-(2-methylpyridin-4-yl)-1H-indazole-5-carboxamide]
59.9 nM	–	COc1cccc(F)c1CN1C[C@H](NC(=O)c2ccc3[nH]nc(-c4ccncc4)c3c2)CC[C@H]1C(=O)N1CCCCC1 [N-[(3R,6S)-1-(2-fluoro-6-methoxybenzyl)-6-(piperidin-1-ylcarbonyl)piperidin-3-yl]-3-pyridin-4-yl-1H-indazole-5-carboxamide]
